Measurements reported in patent US20190255073A1, “ESTERS OF 3-POLYAMINE DERIVATIVES OF BILE ACIDS FOR THE TREATMENT OF INFECTIONS” (VIRBAC, priority 2016, published 2019).
Converted amounts (≈) assume the structure as drawn. Like-named read-outs stand apart in the source and are kept apart here.

Key:
S. aureus ATCC25923 = assay: MIC determination by microplate dilution, S. aureus human strain; type: cell-based, Staphylococcus aureus; settings: Staphylococcus aureus, ATCC25923, Gram-positive, Mueller-Hinton medium, 24 h, 37° C.
Summary of the method: (§1)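 Strains precultured in Mueller-Hinton broth 24 h at 37 °C; compounds from 5 mg/mL stocks in DMSO/methanol 50/50, twofold serial dilution in 96-well plates, inoculum set to OD 0.01. Incubated 24 h at 37 °C, humid; OD read at 620 nm to derive MIC, duplicates.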

S. aureus (340) = assay: MIC determination by microplate dilution, S. aureus animal strain; type: cell-based, Staphylococcus aureus; settings: Staphylococcus aureus, Gram-positive, Mueller-Hinton medium, 24 h, 37° C.
Summary of the method: as §1

S. intermedius (1051997) = assay: MIC determination by microplate dilution, S. intermedius animal strain; type: cell-based, Staphylococcus intermedius; settings: Staphylococcus intermedius, Gram-positive, Mueller-Hinton medium, 24 h, 37° C.
Summary of the method: as §1

E. faecalis ATCC29212 = assay: MIC determination by microplate dilution, E. faecalis human strain; type: cell-based, Enterococcus faecalis; settings: Enterococcus faecalis, ATCC29212, Gram-positive, Mueller-Hinton medium, 24 h, 37° C.
Summary of the method: as §1

E. coli ATCC28922 = assay: MIC determination by microplate dilution, E. coli human strain; type: cell-based, Escherichia coli; settings: Escherichia coli, ATCC28922, Gram-negative, Mueller-Hinton medium, 24 h, 37° C.
Summary of the method: as §1

E. coli (1956) = assay: MIC determination by microplate dilution, E. coli animal strain; type: cell-based, Escherichia coli; settings: Escherichia coli, Gram-negative, Mueller-Hinton medium, 24 h, 37° C.
Summary of the method: as §1

P. aeruginosa ATCC27853 = assay: MIC determination by microplate dilution, P. aeruginosa human strain; type: cell-based, Pseudomonas aeruginosa; settings: Pseudomonas aeruginosa, ATCC27853, Gram-negative, Mueller-Hinton medium, 24 h, 37° C.
Summary of the method: as §1

P. aeruginosa (1051575) [1] = assay: MIC determination by microplate dilution, P. aeruginosa animal strain; type: cell-based, Pseudomonas aeruginosa; settings: Pseudomonas aeruginosa, Gram-negative, Mueller-Hinton medium, 24 h, 37° C.
Summary of the method: as §1

CHO-K1 cells = assay: WST1 cytotoxicity test on CHO-K1 cells; type: cell-based, Chinese hamster; settings: Cricetulus griseus
Summary of the method: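 Viability read-out: WST-1 tetrazolium cleavage by mitochondrial dehydrogenases, 20 min at 37 °C, A450. Compounds added at rising concentrations, in duplicate, to CHO-K1 cells for 24 h (37 °C, 5% CO2). IC50, the concentration halving viability, fitted by nonlinear regression.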

P. aeruginosa (1051575) [2] = assay: Potentiation of the doxycycline activity at 2 μg/mL; type: cell-based, Pseudomonas aeruginosa; settings: in combination with doxycycline 2 μg/mL; 24 h, 37°
C. albicans = assay: Antifungal activity, cascade microdilution, C. albicans; type: cell-based, Candida albicans; settings: Candida albicans, 24 h, read-out: IC50 (μg/mL) C. albicans
[3] = CHO-K1, 24 h, read-out: IC50 (μg/mL) CHO
[4] = CHO-K1, read-out: IC50 (μg/mL) CHO
[5] = CHO-K1, CHO (Example 7), read-out: IC50 (μg/mL) CHO
[6] = compounds as hydrochloride in water, MH medium

Row | SMILES | MIC (S. aureus ATCC25923) [µg/mL] | MIC (S. aureus (340)) [µg/mL] | MIC (S. intermedius (1051997)) [µg/mL] | MIC (E. faecalis ATCC29212) [µg/mL] | MIC (E. coli ATCC28922) [µg/mL] | MIC (E. coli (1956)) [µg/mL] | MIC (P. aeruginosa ATCC27853) [µg/mL] | MIC (P. aeruginosa (1051575) [1]) [µg/mL] | IC50 (CHO-K1 cells; [3]) [µg/mL] | IC50 (CHO-K1 cells; [4]) [µg/mL] | MIC - P. aeruginosa (1051575): content of compound of formula (I) to restore the doxycycline activity (at 2 μg/mL) (P. aeruginosa (1051575) [2]) [µg/mL] | IC50 (C. albicans) [µg/mL] | IC50 (CHO-K1 cells; [5]) [µg/mL] | IC50 (C. albicans; [6]) [µg/mL]
1 | CC(C)OC(=O)CC[C@@H](C)[C@H]1CCC2C3CCC4C[C@@H](NCCCNCCCN)CC[C@]4(C)C3CC[C@@]21C (stereo partly drawn) [(16), isopropyl 3β-norspermidinolithocholate] | 3.5 (≈ 6.58 µM) | 3.5 (≈ 6.58 µM) | 7 (≈ 13.2 µM) | 3.5 (≈ 6.58 µM) | 14 (≈ 26.3 µM) | 7 (≈ 13.2 µM) | 7 (≈ 13.2 µM) | 3.5 (≈ 6.58 µM) | 13 (≈ 24.4 µM) | 13 (≈ 24.4 µM) | 3 | 2 (≈ 3.76 µM) |  | 
2 | COC(=O)CC[C@@H](C)[C@H]1CCC2C3CCC4C[C@@H](NCCNCCNCCNCCN)CC[C@]4(C)C3C[C@H](O)[C@@]21C (stereo partly drawn) [(19), methyl 3β-(tetraethylenepentamine)deoxycholate] | 4 (≈ 6.92 µM) | 7 (≈ 12.1 µM) | 7 (≈ 12.1 µM) | 7 (≈ 12.1 µM) | 7 (≈ 12.1 µM) | 29 (≈ 50.2 µM) | 15 (≈ 26 µM) | 7 (≈ 12.1 µM) | 40 (≈ 69.2 µM) | 40 (≈ 69.2 µM) | 4 | 4 (≈ 6.92 µM) |  | 
3 | CC(C)OC(=O)CC[C@@H](C)[C@H]1CCC2C3C(C[C@H](O)[C@@]21C)[C@@]1(C)CC[C@H](NCCNCCNCCNCCNCCN)CC1C[C@H]3O (stereo partly drawn) [(21), isopropyl 3β-(pentaethylenehexamine)cholate] | 33 (≈ 49.6 µM) | 33 (≈ 49.6 µM) | 16 (≈ 24.1 µM) | 33 (≈ 49.6 µM) | 33 (≈ 49.6 µM) | 66 (≈ 99.2 µM) | 66 (≈ 99.2 µM) | 66 (≈ 99.2 µM) |  |  |  |  | 105 (≈ 158 µM) | 66 (≈ 99.2 µM)
4 | CC(C)OC(=O)CC[C@@H](C)[C@H]1CCC2C3CCC4C[C@@H](NCCNCCNCCNCCNCCN)CC[C@]4(C)C3C[C@H](O)[C@@]21C (stereo partly drawn) [(27), isopropyl 3β-(pentaethylenehexamine)deoxycholate] | 16 (≈ 24.7 µM) | > 130 | 16 (≈ 24.7 µM) | 32 (≈ 49.3 µM) | 32 (≈ 49.3 µM) | 65 (≈ 100 µM) | 65 (≈ 100 µM) | 65 (≈ 100 µM) |  | 110 (≈ 169 µM) | 8 | 4 (≈ 6.16 µM) |  | 
5 | COC(=O)CC[C@@H](C)[C@H]1CCC2C3CCC4C[C@@H](NCCCN(C)CCCN)CC[C@]4(C)C3C[C@H](O)[C@@]21C (stereo partly drawn) [(31), methyl 3β-(bis(3-aminopropyl)methylamine)deoxycholate] | 7 (≈ 13.1 µM) | 7 (≈ 13.1 µM) | 3 (≈ 5.62 µM) | 13 (≈ 24.4 µM) | 26 (≈ 48.7 µM) | 13 (≈ 24.4 µM) | 26 (≈ 48.7 µM) | 13 (≈ 24.4 µM) | 55 (≈ 103 µM) | 55 (≈ 103 µM) | 3 | 2 (≈ 3.75 µM) |  | 
6 | COC(=O)CC[C@@H](C)[C@H]1CCC2C3CCC4C[C@@H](NCCCN(CCCN)CCCN)CC[C@]4(C)C3C[C@H](O)[C@@]21C (stereo partly drawn) [(32), methyl 3β-(tris(3-aminopropyl)amine)deoxycholate] | 4 (≈ 6.93 µM) | 7 (≈ 12.1 µM) | 7 (≈ 12.1 µM) | 14 (≈ 24.3 µM) | 7 (≈ 12.1 µM) | 30 (≈ 52 µM) | 14 (≈ 24.3 µM) | 7 (≈ 12.1 µM) | 30 (≈ 52 µM) | 30 (≈ 52 µM) | 4 | 2 (≈ 3.47 µM) |  | 
7 | CC(C)OC(=O)CC[C@@H](C)[C@H]1CCC2C3CCC4C[C@@H](NCCCNCCCN)CC[C@]4(C)C3C[C@H](O)[C@@]21C (stereo partly drawn) [Compound (2), isopropyl 3β-norspermidinodeoxycholate] | 3 (≈ 5.48 µM) | 3 (≈ 5.48 µM) | 3 (≈ 5.48 µM) | 14 (≈ 25.6 µM) | 14 (≈ 25.6 µM) | 28 (≈ 51.1 µM) | 14 (≈ 25.6 µM) | 14 (≈ 25.6 µM) | 60 (≈ 110 µM) |  | 3 |  |  | 
8 | COC(=O)CC[C@@H](C)[C@H]1CCC2C3CCC4C[C@@H](NCCCNCCCNCCCN)CC[C@]4(C)C3C[C@H](O)[C@@]21C (stereo partly drawn) [Compound (3), methyl 3β-norsperminodeoxycholate] | 2 (≈ 3.47 µM) | 4 (≈ 6.93 µM) | 1 (≈ 1.73 µM) | 2 (≈ 3.47 µM) | 29 (≈ 50.3 µM) | 14 (≈ 24.3 µM) | 2 (≈ 3.47 µM) | 2 (≈ 3.47 µM) | 6 (≈ 10.4 µM) |  | 4 |  |  | 
9 | CC(C)OC(=O)CC[C@@H](C)[C@H]1CCC2C3C(C[C@H](O)[C@@]21C)[C@@]1(C)CC[C@H](NCCCNCCCNCCCN)CC1C[C@H]3O (stereo partly drawn) [Compound (6), isopropyl 3β-norsperminocholate] | 8 (≈ 12.9 µM) | 8 (≈ 12.9 µM) | 16 (≈ 25.8 µM) | > 60 | 30 (≈ 48.3 µM) | 30 (≈ 48.3 µM) | 30 (≈ 48.3 µM) | 30 (≈ 48.3 µM) | 90 (≈ 145 µM) |  | 4 |  |  | 
10 | COC(=O)CC[C@@H](C)[C@H]1CCC2C3C(CC[C@@]21C)[C@@]1(C)CC[C@H](NCCCNCCCNCCCN)CC1C[C@@H]3O (stereo partly drawn) [Compound (12), methyl 3β-norsperminoursodeoxycholate] | 7 (≈ 12.1 µM) | 4 (≈ 6.93 µM) | 1 (≈ 1.73 µM) | 30 (≈ 52 µM) | 4 (≈ 6.93 µM) | 60 (≈ 104 µM) | 30 (≈ 52 µM) | 7 (≈ 12.1 µM) | 20 (≈ 34.7 µM) |  | 2 |  |  | 
11 | CC(C)OC(=O)CC[C@@H](C)[C@H]1CCC2C3C(CC[C@@]21C)[C@@]1(C)CC[C@H](NCCCNCCCN)CC1C[C@@H]3O (stereo partly drawn) [Compound (14), isopropyl 3β-norspermidinoursodeoxycholate] |  | 55 (≈ 100 µM) | 12.5 (≈ 22.8 µM) |  |  | 110 (≈ 201 µM) |  | 110 (≈ 201 µM) |  |  |  |  | 200 (≈ 365 µM) | 28 (≈ 51.1 µM)
